Results as given in PubChem BioAssay AID256 (DTP/NCI, 2004).
“And” between values parts separate entries of the source, which are not always exact repeats. Identical values can stand only once. Inconclusive results and toxic doses are left out.

Tested on: CD2F1 mice, L1210 leukemia ip, survival T/C
Test: NCI In Vivo Anticancer Drug Screen. Data for tumor model L1210 Leukemia (intraperitoneal) in CD2F1 (CDF1) mice
Details: higher = longer survival
Procedure, shortened: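 Transplantable tumor in mice; compound-treated vs vehicle-treated groups. Read-out = treated/control ratio of the measured endpoint.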

[1] = endpoint: mean survival time, dose: 25.0 mg/kg/injection, schedule: Q04DX003 (ip), vehicle: saline
[2] = endpoint: mean survival time, dose: 50.0 mg/kg/injection, schedule: Q01DX009 (ip), vehicle: Klucel (hydroxypropylcellulose) (HPC)
[3] = endpoint: mean survival time, dose: 100.0 mg/kg/injection, schedule: Q01DX009 (ip), vehicle: Klucel (hydroxypropylcellulose) (HPC)
[4] = endpoint: mean survival time, dose: 200.0 mg/kg/injection, schedule: Q01DX009 (ip), vehicle: Klucel (hydroxypropylcellulose) (HPC)
[5] = endpoint: mean survival time, dose: 100.0 mg/kg/injection, schedule: Q01DX001 (ip), vehicle: saline
[6] = endpoint: mean survival time, dose: 100.0 mg/kg/injection, schedule: Q04DX003 (ip), vehicle: saline
[7] = endpoint: mean survival time, dose: 200.0 mg/kg/injection, schedule: Q01DX001 (ip), vehicle: saline
[8] = endpoint: mean survival time, dose: 200.0 mg/kg/injection, schedule: Q04DX003 (ip), vehicle: saline
[9] = endpoint: mean survival time, dose: 400.0 mg/kg/injection, schedule: Q01DX001 (ip), vehicle: saline
[10] = endpoint: mean survival time, dose: 100.0 mg/kg/injection, schedule: Q01DX001 (ip), vehicle: saline with Tween-80
[11] = endpoint: mean survival time, dose: 200.0 mg/kg/injection, schedule: Q01DX001 (ip), vehicle: saline with Tween-80
[12] = endpoint: median survival time, dose: 25.0 mg/kg/injection, schedule: Q01DX005 (ip), vehicle: saline with Tween-80
[13] = endpoint: median survival time, dose: 50.0 mg/kg/injection, schedule: Q01DX005 (ip), vehicle: saline with Tween-80
[14] = endpoint: median survival time, dose: 100.0 mg/kg/injection, schedule: Q01DX005 (ip), vehicle: saline with Tween-80
[15] = endpoint: mean survival time, dose: 50.0 mg/kg/injection, schedule: Q04DX003 (ip), vehicle: saline with Tween-80
[16] = endpoint: mean survival time, dose: 50.0 mg/kg/injection, schedule: Q01DX009 (ip), vehicle: saline with Tween-80
[17] = endpoint: mean survival time, dose: 100.0 mg/kg/injection, schedule: Q01DX009 (ip), vehicle: saline with Tween-80

Structure (SMILES): Cc1c2cc3c(cc2cc2c4cc5c(cc4cc[n+]12)OCO5)OCO3 (tested in a mixture with another compound)
- T/C (endpoint: mean survival time, dose: 6.25 mg/kg/injection, schedule: Q04DX003 (ip), vehicle: saline): 116 % of control and 121 % of control
- T/C (endpoint: mean survival time, dose: 18.75 mg/kg/injection, schedule: Q04DX003 (ip), vehicle: saline): 95 % of control
- T/C [1]: 115 % of control and 90 % of control

Structure (SMILES): O=C(NCCCCCCNC(=O)Nc1cccc(Cl)c1)Nc1cccc(Cl)c1
- T/C [2]: 94 % of control
- T/C [3]: 91 % of control
- T/C [4]: 88 % of control

Structure (SMILES): CC(=O)Oc1ccc2c(c1)C(=O)CCCCCC(=O)O2
- T/C (endpoint: mean survival time, dose: 12.5 mg/kg/injection, schedule: Q01DX009 (ip), vehicle: saline): 100 % of control
- T/C (endpoint: mean survival time, dose: 12.5 mg/kg/injection, schedule: Q04DX003 (ip), vehicle: saline): 97 % of control
- T/C (endpoint: mean survival time, dose: 25.0 mg/kg/injection, schedule: Q01DX001 (ip), vehicle: saline): 98 % of control
- T/C (endpoint: mean survival time, dose: 25.0 mg/kg/injection, schedule: Q01DX009 (ip), vehicle: saline): 97 % of control
- T/C [1]: 98 % of control
- T/C (endpoint: mean survival time, dose: 50.0 mg/kg/injection, schedule: Q01DX001 (ip), vehicle: saline): 110 % of control
- T/C (endpoint: mean survival time, dose: 50.0 mg/kg/injection, schedule: Q01DX009 (ip), vehicle: saline): 94 % of control
- T/C (endpoint: mean survival time, dose: 50.0 mg/kg/injection, schedule: Q04DX003 (ip), vehicle: saline): 111 % of control
- T/C [5]: 98 % of control
- T/C (endpoint: mean survival time, dose: 100.0 mg/kg/injection, schedule: Q01DX009 (ip), vehicle: saline): 95 % of control
- T/C [6]: 120 % of control
- T/C [7]: 100 % of control
- T/C (endpoint: mean survival time, dose: 200.0 mg/kg/injection, schedule: Q01DX009 (ip), vehicle: saline): 89 % of control
- T/C [8]: 102 % of control
- T/C [9]: 111 % of control

Structure (SMILES): c1cc2c(c(N3CCNCC3)c1)CCCC2
- T/C [10]: 110 % of control
- T/C [11]: 95 % of control

Structure (SMILES): Cc1ccc(C(=Nc2ccccc2)N=P(c2ccccc2)(c2ccccc2)c2ccccc2)cc1
- T/C (endpoint: median survival time, dose: 12.5 mg/kg/injection, schedule: Q01DX005 (ip), vehicle: saline with Tween-80): 102 % of control
- T/C [12]: 105 % of control
- T/C [13]: 105 % of control
- T/C [14]: 91 % of control

Structure (SMILES): CCOC(=O)/C(N=Nc1ccc(O)cc1)=C(\C)O
- T/C [2]: 101 % of control
- T/C [3]: 93 % of control
- T/C (endpoint: mean survival time, dose: 100.0 mg/kg/injection, schedule: Q04DX003 (ip), vehicle: acetone): 95 % of control
- T/C [4]: 96 % of control
- T/C (endpoint: mean survival time, dose: 200.0 mg/kg/injection, schedule: Q04DX003 (ip), vehicle: acetone): 98 % of control

Structure (SMILES): c1ccc2nc(C3CO3)cnc2c1 (stereo not given)
- T/C [15]: 100 % of control
- T/C (endpoint: mean survival time, dose: 100.0 mg/kg/injection, schedule: Q04DX003 (ip), vehicle: saline with Tween-80): 96 % of control
- T/C (endpoint: mean survival time, dose: 200.0 mg/kg/injection, schedule: Q04DX003 (ip), vehicle: saline with Tween-80): 97 % of control

Structure (SMILES): CCn1ccc(=O)nc1
- T/C (endpoint: mean survival time, dose: 12.5 mg/kg/injection, schedule: Q04DX002 (ip), vehicle: saline with Tween-80): 95 % of control
- T/C (endpoint: mean survival time, dose: 25.0 mg/kg/injection, schedule: Q04DX002 (ip), vehicle: saline with Tween-80): 95 % of control
- T/C (endpoint: mean survival time, dose: 50.0 mg/kg/injection, schedule: Q04DX002 (ip), vehicle: saline with Tween-80): 106 % of control

Structure (SMILES): C=C1COC(O)(C2OCOC(C3CC(=O)NC(=O)C3)C2O)C1C (stereo not given)
- T/C (endpoint: median survival time, dose: 4.0 micrograms/kg/injection, schedule: Q01DX009 (ip), vehicle: water): 103 % of control
- T/C (endpoint: median survival time, dose: 8.0 micrograms/kg/injection, schedule: Q01DX009 (ip), vehicle: saline): 110 % of control
- T/C (endpoint: median survival time, dose: 8.0 micrograms/kg/injection, schedule: Q01DX009 (ip), vehicle: water): 118 % of control and 102 % of control
- T/C (endpoint: median survival time, dose: 16.0 micrograms/kg/injection, schedule: Q01DX009 (ip), vehicle: saline): 116 % of control
- T/C (endpoint: median survival time, dose: 16.0 micrograms/kg/injection, schedule: Q01DX009 (ip), vehicle: water): 116 % of control
- T/C (endpoint: median survival time, dose: 32.0 micrograms/kg/injection, schedule: Q01DX009 (ip), vehicle: saline): 118 % of control

Structure (SMILES): Cc1cc(-c2ccccc2)c2c(C#N)cn(-c3ccccc3)c2n1
- T/C [5]: 87 % of control
- T/C [7]: 92 % of control
- T/C [9]: 92 % of control

Structure (SMILES): CC(=O)c1cc(-c2ccccc2)nc2c(Cl)cc(Cl)cc12
- T/C [5]: 102 % of control
- T/C [7]: 91 % of control
- T/C [9]: 103 % of control

Structure (SMILES): c1ccc(C[n+]2cccc3ccccc32)cc1
- T/C (endpoint: mean survival time, dose: 5.0 mg/kg/injection, schedule: Q04DX003 (ip), vehicle: saline with Tween-80): 101 % of control
- T/C (endpoint: mean survival time, dose: 10.0 mg/kg/injection, schedule: Q04DX003 (ip), vehicle: saline with Tween-80): 98 % of control
- T/C (endpoint: mean survival time, dose: 20.0 mg/kg/injection, schedule: Q04DX003 (ip), vehicle: saline with Tween-80): 98 % of control

Structure (SMILES): Cc1ccc(Cl)cc1NC(=O)c1c(Br)c(Br)c(Br)c(Br)c1C(=O)O
- T/C [10]: 106 % of control
- T/C [11]: 110 % of control
- T/C (endpoint: mean survival time, dose: 400.0 mg/kg/injection, schedule: Q01DX001 (ip), vehicle: saline with Tween-80): 108 % of control

Structure (SMILES): NC(CCl)=NCCc1ccsc1
- T/C (endpoint: mean survival time, dose: 25.0 mg/kg/injection, schedule: Q04DX002 (ip), vehicle: saline): 95 % of control
- T/C (endpoint: mean survival time, dose: 50.0 mg/kg/injection, schedule: Q04DX002 (ip), vehicle: saline): 106 % of control
- T/C (endpoint: mean survival time, dose: 100.0 mg/kg/injection, schedule: Q04DX002 (ip), vehicle: saline): 98 % of control and 112 % of control

Structure (SMILES): Cc1cc(C=O)c(C)n1-c1ccc(C(=O)O)cc1
- T/C [16]: 101 % of control
- T/C [17]: 93 % of control
- T/C (endpoint: mean survival time, dose: 200.0 mg/kg/injection, schedule: Q01DX009 (ip), vehicle: saline with Tween-80): 101 % of control

Structure (SMILES): Cc1nocc1CC1=C2CCCC(=O)C2(C)CCC1=O (stereo not given)
- T/C (endpoint: mean survival time, dose: 100.0 mg/kg/injection, schedule: Q01DX001 (ip), vehicle: alcohol): 94 % of control
- T/C (endpoint: mean survival time, dose: 200.0 mg/kg/injection, schedule: Q01DX001 (ip), vehicle: alcohol): 92 % of control
- T/C (endpoint: mean survival time, dose: 400.0 mg/kg/injection, schedule: Q01DX001 (ip), vehicle: alcohol): 95 % of control

Structure (SMILES): COc1cc(C2CC(C)(O)Oc3cc4c(cc32)OCO4)cc(OC)c1OC (stereo not given)
- T/C [12]: 106 % of control
- T/C [13]: 114 % of control
- T/C (endpoint: median survival time, dose: 86.0 mg/kg/injection, schedule: Q01DX005 (ip), vehicle: saline with Tween-80): 119 % of control
- T/C [14]: 110 % of control
- T/C (endpoint: median survival time, dose: 144.0 mg/kg/injection, schedule: Q01DX005 (ip), vehicle: saline with Tween-80): 160 % of control
- T/C (endpoint: median survival time, dose: 200.0 mg/kg/injection, schedule: Q01DX005 (ip), vehicle: saline with Tween-80): 102 % of control
- T/C (endpoint: median survival time, dose: 240.0 mg/kg/injection, schedule: Q01DX005 (ip), vehicle: saline with Tween-80): 102 % of control

Structure (SMILES): CCC1=NNC(=O)C1(Br)Br
- T/C (endpoint: mean survival time, dose: 12.5 mg/kg/injection, schedule: Q04DX003 (ip), vehicle: saline with Tween-80): 100 % of control
- T/C (endpoint: mean survival time, dose: 25.0 mg/kg/injection, schedule: Q04DX003 (ip), vehicle: saline with Tween-80): 102 % of control
- T/C [15]: 105 % of control

Structure (SMILES): CC(C)(C)N.[O]=[Cr](=[O])([OH])[OH]
- T/C (endpoint: mean survival time, dose: 5.0 mg/kg/injection, schedule: Q01DX001 (ip), vehicle: saline): 104 % of control
- T/C (endpoint: mean survival time, dose: 10.0 mg/kg/injection, schedule: Q01DX001 (ip), vehicle: saline): 102 % of control
- T/C (endpoint: mean survival time, dose: 20.0 mg/kg/injection, schedule: Q01DX001 (ip), vehicle: saline): 96 % of control
- T/C (endpoint: mean survival time, dose: 40.0 mg/kg/injection, schedule: Q01DX001 (ip), vehicle: saline): 94 % of control

Structure (SMILES): C#CC(O)C(CC)CCCC (stereo not given)
- T/C [16]: 99 % of control
- T/C [17]: 94 % of control

Structure (SMILES): CC[C@@]1(O)C[C@H](OC2CC(N(C)C)C(OC3CC(O)C(OC4CC(O)C(O)C(C)O4)C(C)O3)C(C)O2)c2c(cc3c(c2O)C(=O)c2c(O)ccc(O)c2C3=O)[C@H]1C(=O)OC (stereo not given in full)
- T/C (endpoint: mean survival time, dose: 3.8 mg/kg/injection, schedule: Q01DX001 (ip), vehicle: other): 117 % of control
- T/C (endpoint: mean survival time, dose: 7.5 mg/kg/injection, schedule: Q01DX001 (ip), vehicle: other): 120 % of control
- T/C (endpoint: mean survival time, dose: 15.0 mg/kg/injection, schedule: Q01DX001 (ip), vehicle: other): 96 % of control

Structure (SMILES): O=S(=O)(O)Cc1ccccc1O
- T/C [5]: 100 % of control
- T/C [6]: 96 % of control
- T/C [7]: 100 % of control
- T/C [8]: 95 % of control
- T/C [9]: 102 % of control
- T/C (endpoint: mean survival time, dose: 400.0 mg/kg/injection, schedule: Q04DX003 (ip), vehicle: saline): 89 % of control
